# Laboratory results reported in US20250221405A1, “ROOT NODULE FORMATION-PROMOTING COMPOSITION, AND ROOT HAIR FORMATION-PROMOTING COMPOSITION” (KANEKA CORPORATION, priority 2022, published 2025).
# Tests used:
# soybeans (Fukuyutaka) [1] = test: Experimental Example 3: seed coating with biosurfactant and/or KVP, number of root nodules; assay type: in vivo, soybean; conditions: Table 3-2
# Protocol: A solution of SF, SL, or RL and/or KVP dissolved in water (a composition for promoting root nodule formation) as the following amount in each of the following treatments was prepared. The seeds of soybeans (Fukuyutaka) were coated using the solution in an amount of 800 μL/100 g seed to obtain coated seeds.
# (§1) A 9 cm poly pot was filled with culture soil and seeded with three coated seeds in each pot.
# (§2) After seeding, the coated seeds were cultivated in a greenhouse set at 28° C. during the day (14h) and 18° C. at night (10h).
# Seven days after the seeding, the soybeans in each pot were thinned to one plant, and each pot was irrigated with 4.3 mL of a mixture of rhizobium materials (rhizobium and azospirillum) mixed with water at a proportion of 10 g/L.
# (§3) Twenty-one days after the irrigation, the roots were washed with water so as not to remove root nodules, the culture soil was removed, and then, the root nodules formed on the roots were collected.
# (§4) After the seeding, each pot was fertilized with ½ Hoagland solution (50 mL) once a week. In addition, experiments were conducted on eight pots (eight plants) in each treatment.
# A plurality of experiments were conducted by changing the type of the composition for promoting root nodule formation and the like. Tables 3-1 and 3-2 show the amounts of SF, SL, or RL and/or KVP in the composition for promoting root nodule formation and the investigation result of the number of root nodules. Note that the number of root nodules is indicated by a relative value with Tl taken as 100, with a numerical value in parentheses indicating the average number of root nodules actually measured (pieces/plant).
# soybeans (Fukuyutaka) [2] = test: Experimental Example 4: soil irrigation with biosurfactant and/or KVP, root nodule number and weight, root weight; assay type: in vivo, soybean; conditions: with rhizobium materials
# Protocol: (§5) For each of the following treatments, to a mixture of rhizobium materials (rhizobium and azospirillum) mixed with water at a proportion of 10 g/L, SF, SL, or RL was added in the following amount to prepare a solution comprising the rhizobium materials and SF, SL, or RL (a composition for promoting root nodule formation).
# A 9 cm poly pot was filled with sterilized fertilizer-free culture soil (Heiwa) and seeded three seeds of soybeans (Fukuyutaka) in each pot.
# (§6) After seeding, the seeds were cultivated in a greenhouse set at 28° C. during the day (14h) and 18° C. at night (10h).
# (§7) Seven days after the seeding, the soybeans in each pot were thinned to one plant, and each pot was irrigated with 4.3 ml of the composition for promoting root nodule formation (in the treatment T1, a mixture of rhizobium materials (rhizobium and azospirillum) mixed with water at a proportion of 10 g/L).
# as §3, §4
# A plurality of experiments were conducted by changing the type of the composition for promoting root nodule formation and the like. Tables 4-1 and 4-2 show the date of seeding, the date of irrigating, the date of investigating the number of root nodules, the composition for promoting root nodule formation, and the investigation result of the number of root nodules. Note that the number of root nodules is indicated by a relative value with Tl taken as 100, with a numerical value in parentheses indicating the average number of root nodules actually measured (pieces/plant). In addition, fresh root nodule weight means the weight of root nodules before drying on the day of collection and is indicated by a relative value with Tl taken as 100. Dried underground part weight means the weight of roots dried for 48 hours at 80° C. and indicated by a relative value with Tl taken as 100.
# soybeans (Fukuyutaka) [3] = test: Experimental Example 1: seed coating, number of root nodules; assay type: in vivo, soybean; conditions: Table 1-2
# Protocol: A solution of SF, SL, or RL dissolved in water (a composition for promoting root nodule formation) as the following amount in each of the following treatments was prepared. The seeds of soybeans (Fukuyutaka) were coated using the solution in an amount of 800 μL/100 g seed to obtain coated seeds.
# as §1, §2
# Seven days after the seeding, the soybeans in each pot were thinned to one plant, and each pot was irrigated with 4.3 ml of a mixture of rhizobium materials (rhizobium and azospirillum) mixed with water at a proportion of 10 g/L.
# as §3
# After the seeding, each pot was fertilized with ½ Hoagland solution once a week. In addition, experiments were conducted on eight pots (eight plants) in each treatment.
# (§8) A plurality of experiments were conducted by changing the type of the composition for promoting root nodule formation and the like. Tables 1-1 and 1-2 show the date of seeding, the date of irrigating, the date of investigating the number of root nodules, the amount of SF, SL, or RL in the composition for promoting root nodule formation, and the investigation result of the number of root nodules. Note that the number of root nodules is indicated by a relative value with Tl taken as 100, with a numerical value in parentheses indicating the average number of root nodules actually measured (pieces/plant).
# soybeans (Fukuyutaka) [4] = test: Experimental Example 2: soil irrigation with composition comprising rhizobium materials, number of root nodules; assay type: in vivo, soybean; conditions: Table 2-2, irrigation
# Protocol: as §5, with “treatment,” for “treatments,”
# A 9 cm poly pot was filled with culture soil and seeded with three seeds of soybeans (Fukuyutaka) in each pot.
# as §6, §7, §3, §4
# as §8, with “2-1” for “1-1”, “2-2” for “1-2”, “nodules,” for “nodules, the amount of SF, SL, or RL in”, “T1” for “Tl”
# [5] = test system: Japanese mustard spinach (Haru no Senbatsu); test: Experimental Example 5: foliar application, microscopic observation of root hair; assay type: in vivo; parameters: key: those with a significant root hair increase observed were evaluated as AA; those with a root hair increase observed were evaluated as BB; those with no root hair increase observed were evaluated as CC; those with an overall or partial root hair decrease observed were evaluated as DD
# Protocol: An observation tank formed with ½ MS agar medium (0.8% agar) was prepared in an acrylic tank. Japanese mustard spinach (Haru no Senbatsu) was seeded near the surface of the observation tank. After seeding, the Japanese mustard spinach was cultivated in an incubator set in a light period (6:00-18:00, temperature 26° C., illuminance 120 μmol/m^2·s) and a dark period (18:00-6:00, temperature 18° C.). Twelve to fourteen days after the seeding, the following liquid (a composition for promoting root hair formation) was applied on the leaf surfaces of the plant body (foliar application) so as not to drip on the agar in each of the following treatments. […] A plurality of experiments were conducted by changing the date of seeding, the date of foliar application, the date of observation, and the type of the composition for promoting root hair formation and the like. Tables 5 to 9 show the composition for promoting root hair formation, the outline of operation and the observation results of root hair.
# [6] = seed coating SL or RL 0.5 g/t seed (diluted 16000 times)
# [7] = seed coating SL or RL 5 g/t seed (diluted 1600 times)
# [8] = Table 4-2, single agent diluted 1000 times
# [9] = Table 4-2, single agent diluted 10000 times
Substance,"Number of Root Nodules, average number actually measured (soybeans (Fukuyutaka) [1]; [6]) [pieces/plant]","Number of Root Nodules, relative value with T1 taken as 100 (soybeans (Fukuyutaka) [1]; [6])","Number of Root Nodules, average number actually measured (soybeans (Fukuyutaka) [1]; [7]) [pieces/plant]","Number of Root Nodules, relative value with T1 taken as 100 (soybeans (Fukuyutaka) [1]; [7])","Dried Underground Part Weight, relative value with T1 taken as 100 (soybeans (Fukuyutaka) [2]; [8])","Fresh Root Nodule Weight, relative value with T1 taken as 100 (soybeans (Fukuyutaka) [2]; [8])","Number of Root Nodules, average number actually measured (soybeans (Fukuyutaka) [2]; [8]) [pieces/plant]","Number of Root Nodules, relative value with T1 taken as 100 (soybeans (Fukuyutaka) [2]; [8])","Dried Underground Part Weight, relative value with T1 taken as 100 (soybeans (Fukuyutaka) [2]; [9])","Fresh Root Nodule Weight, relative value with T1 taken as 100 (soybeans (Fukuyutaka) [2]; [9])","Number of Root Nodules, average number actually measured (soybeans (Fukuyutaka) [2]; [9]) [pieces/plant]","Number of Root Nodules, relative value with T1 taken as 100 (soybeans (Fukuyutaka) [2]; [9])","Number of Root Nodules, average number actually measured (soybeans (Fukuyutaka) [3]; seed coating 1 g/t seed) [pieces/plant]","Number of Root Nodules, relative value with T1 taken as 100 (soybeans (Fukuyutaka) [3]; seed coating 1 g/t seed)","Number of Root Nodules, average number actually measured (soybeans (Fukuyutaka) [3]; seed coating 10 g/t seed) [pieces/plant]","Number of Root Nodules, relative value with T1 taken as 100 (soybeans (Fukuyutaka) [3]; seed coating 10 g/t seed)","Number of Root Nodules, average number actually measured (soybeans (Fukuyutaka) [4]; diluted 1000 times) [pieces/plant]","Number of Root Nodules, relative value with T1 taken as 100 (soybeans (Fukuyutaka) [4]; diluted 1000 times)","Number of Root Nodules, average number actually measured (soybeans (Fukuyutaka) [4]; diluted 5000 times) [pieces/plant]","Number of Root Nodules, relative value with T1 taken as 100 (soybeans (Fukuyutaka) [4]; diluted 5000 times)",also measured
rhamnolipid [RL],24.6,105,25.3,107,105,115,19.5,116,105,114,18.5,110,16.0,137,13.2,113,13.6,116,13.6,116,"Number of Root Nodules, average number actually measured (soybeans (Fukuyutaka) [3]; seed coating 50 g/t seed): 15.3 pieces/plant; Number of Root Nodules, relative value with T1 taken as 100 (soybeans (Fukuyutaka) [3]; seed coating 50 g/t seed): 131; Number of Root Nodules, average number actually measured (soybeans (Fukuyutaka) [4]; diluted 10000 times): 13.4 pieces/plant; Number of Root Nodules, relative value with T1 taken as 100 (soybeans (Fukuyutaka) [4]; diluted 10000 times): 115; Observation Result (root hair) ([5]; Table 7, aqueous solution diluted 1000 times): BB; Observation Result (root hair) ([5]; Table 7, aqueous solution diluted 2000 times): BB; Observation Result (root hair) ([5]; Table 7, aqueous solution diluted 5000 times): BB"
sophorolipid [SL],24.5,104,24.9,106,102,113,18.5,110,185,105,17.8,105,15.3,131,13.3,114,15.7,134,12.1,104,"Number of Root Nodules, average number actually measured (soybeans (Fukuyutaka) [3]; seed coating 0.1 g/t seed): 11.8 pieces/plant; Number of Root Nodules, relative value with T1 taken as 100 (soybeans (Fukuyutaka) [3]; seed coating 0.1 g/t seed): 101; Number of Root Nodules, average number actually measured (soybeans (Fukuyutaka) [4]; diluted 10000 times): 11.9 pieces/plant; Number of Root Nodules, relative value with T1 taken as 100 (soybeans (Fukuyutaka) [4]; diluted 10000 times): 102; Observation Result (root hair) ([5]; Table 6, aqueous solution diluted 1000 times): BB; Observation Result (root hair) ([5]; Table 6, aqueous solution diluted 2000 times): BB"
